Activity calls are given as the source filed them. No cut-off for these calls is given here.
Experiments:
[1] = target: T1, Acetylcholinesterase (Electrophorus electricus, UniProt O42275)
Description: Inhibition of electric eel AChE using acetylthiocholine iodide as substrate preincubated for 6 mins prior to substrate addition measured at 60 to 180 seconds by Ellman's method

[2] = target: Cholinesterase (Equus caballus, UniProt P81908)
Description: Inhibition of equine serum BChE using S-butyrylthiocholine iodide as substrate preincubated for 6 mins prior to substrate addition measured at 60 to 180 seconds by Ellman's method

[3] = target: Amyloid-beta precursor protein (Homo sapiens) (UniProt P05067); conditions: at 20 µM
[4] = Metal chelating activity assessed as compound-Cu2+ complex formation at 25 uM by UV-vis spectrophotometric analysis; format: functional
[5] = Neurotoxicity in human SH-SY5Y cells at 5 uM after 24 hrs by MTT assay relative to control; format: toxicity, cell-based; conditions: read-out: Activity
[6] = Neurotoxicity in human SH-SY5Y cells at 25 uM after 24 hrs by MTT assay relative to control; format: toxicity, cell-based
[7] = Neurotoxicity in human SH-SY5Y cells at 10 uM after 24 hrs by MTT assay relative to control; format: toxicity, cell-based
[8] = Neurotoxicity in human SH-SY5Y cells at 50 uM after 24 hrs by MTT assay relative to control; format: toxicity, cell-based
[9] = Neurotoxicity in human SH-SY5Y cells at 1 uM after 24 hrs by MTT assay relative to control; format: toxicity, cell-based
[10] = target: T1, Acetylcholinesterase; experiment: Competitive inhibition of electric eel AChE using acetylthiocholine as substrate by Lineweaver-Burk plot analysis
[11] = Metal chelating activity assessed as compound-Fe2+ complex formation at 25 uM by UV-vis spectrophotometric analysis; format: functional

T1 sequence (O42275 whole entry): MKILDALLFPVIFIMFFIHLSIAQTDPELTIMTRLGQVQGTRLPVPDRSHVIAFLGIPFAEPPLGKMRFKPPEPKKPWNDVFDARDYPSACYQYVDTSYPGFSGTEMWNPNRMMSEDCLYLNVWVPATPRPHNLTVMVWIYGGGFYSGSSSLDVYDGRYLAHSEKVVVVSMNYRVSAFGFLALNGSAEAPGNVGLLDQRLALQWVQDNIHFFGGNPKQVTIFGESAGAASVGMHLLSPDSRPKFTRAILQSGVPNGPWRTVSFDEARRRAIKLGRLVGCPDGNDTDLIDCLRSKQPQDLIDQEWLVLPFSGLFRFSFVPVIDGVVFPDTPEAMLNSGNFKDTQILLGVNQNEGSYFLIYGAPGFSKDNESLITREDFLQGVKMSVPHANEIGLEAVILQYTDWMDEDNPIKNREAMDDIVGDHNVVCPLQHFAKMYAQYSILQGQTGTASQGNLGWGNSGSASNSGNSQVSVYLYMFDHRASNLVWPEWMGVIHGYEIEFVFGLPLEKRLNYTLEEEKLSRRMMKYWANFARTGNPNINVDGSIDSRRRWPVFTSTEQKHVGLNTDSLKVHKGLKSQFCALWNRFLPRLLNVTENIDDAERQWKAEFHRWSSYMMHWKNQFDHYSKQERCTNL
Chain of Amyloid-beta precursor protein (Homo sapiens) (P05067 whole entry): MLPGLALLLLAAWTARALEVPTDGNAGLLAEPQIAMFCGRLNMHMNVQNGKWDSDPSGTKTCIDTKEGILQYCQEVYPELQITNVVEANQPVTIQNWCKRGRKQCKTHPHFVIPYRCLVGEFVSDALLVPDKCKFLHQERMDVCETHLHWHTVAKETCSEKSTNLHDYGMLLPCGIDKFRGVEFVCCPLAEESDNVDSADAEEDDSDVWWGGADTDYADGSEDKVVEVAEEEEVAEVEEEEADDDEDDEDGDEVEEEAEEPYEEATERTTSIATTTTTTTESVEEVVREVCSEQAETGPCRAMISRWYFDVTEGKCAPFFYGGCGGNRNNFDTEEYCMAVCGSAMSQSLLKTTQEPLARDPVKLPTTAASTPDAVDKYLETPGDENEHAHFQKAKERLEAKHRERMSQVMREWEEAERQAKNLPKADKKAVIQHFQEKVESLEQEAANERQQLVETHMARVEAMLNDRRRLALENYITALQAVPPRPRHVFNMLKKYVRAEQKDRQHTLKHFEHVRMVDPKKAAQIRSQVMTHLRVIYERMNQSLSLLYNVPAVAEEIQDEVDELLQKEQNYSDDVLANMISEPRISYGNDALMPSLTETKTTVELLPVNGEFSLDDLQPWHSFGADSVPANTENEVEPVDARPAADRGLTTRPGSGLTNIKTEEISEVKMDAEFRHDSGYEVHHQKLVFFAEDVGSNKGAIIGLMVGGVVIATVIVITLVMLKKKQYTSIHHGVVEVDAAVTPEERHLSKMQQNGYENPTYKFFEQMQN
Chain of Cholinesterase (P81908 whole entry): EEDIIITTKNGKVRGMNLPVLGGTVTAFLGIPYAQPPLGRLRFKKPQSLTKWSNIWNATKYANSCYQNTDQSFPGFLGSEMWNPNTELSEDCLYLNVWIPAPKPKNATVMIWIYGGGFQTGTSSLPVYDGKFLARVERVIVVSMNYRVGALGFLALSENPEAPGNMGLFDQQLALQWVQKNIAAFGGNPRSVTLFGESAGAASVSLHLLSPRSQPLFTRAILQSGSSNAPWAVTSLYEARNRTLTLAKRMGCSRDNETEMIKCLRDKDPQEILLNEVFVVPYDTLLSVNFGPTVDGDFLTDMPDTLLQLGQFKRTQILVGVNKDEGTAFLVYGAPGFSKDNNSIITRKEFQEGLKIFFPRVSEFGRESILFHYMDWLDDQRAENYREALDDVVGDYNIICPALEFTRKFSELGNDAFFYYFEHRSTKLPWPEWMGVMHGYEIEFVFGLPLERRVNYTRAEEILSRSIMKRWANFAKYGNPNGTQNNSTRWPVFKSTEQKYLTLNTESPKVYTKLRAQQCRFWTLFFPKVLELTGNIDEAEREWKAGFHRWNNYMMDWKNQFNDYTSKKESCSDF

| SMILES | IC50 [1] [nM] | IC50 [2] [nM] | inhibition [3] [%] | also measured |
| --- | --- | --- | --- | --- |
| O=C(CN1CCN(CCCCCCOc2ccc3c(-c4ccccc4)cc(=O)oc3c2)CC1)Nc1c2c(nc3ccccc13)CCCC2 | 2360 | 4510 | 27.5 | – |
| COc1cc(=O)oc2cc(OCCCCCN3CCN(CC(=O)Nc4c5c(nc6ccccc46)CCCC5)CC3)ccc12 | 357 | 730 | 30 | – |
| O=C(CN1CCN(CCOc2ccc3ccc(=O)oc3c2)CC1)Nc1c2c(nc3ccccc13)CCCC2 | 150 | 493 | 59 | – |
| O=c1cc(-c2ccccc2)c2ccc(O)cc2o1 | 258000 | > 500000 | 27.1 | – |
| COc1cc(/C=C/C(=O)CC(=O)/C=C/c2ccc(O)c(OC)c2)ccc1O | – | – | 42.4 | – |
| COc1cc(=O)oc2cc(OCCN3CCN(CC(=O)Nc4c5c(nc6ccccc46)CCCC5)CC3)ccc12 | 150 | 5140 | 21.6 | – |
| Cc1cc(=O)oc2cc(OCCCN3CCN(CC(=O)Nc4c5c(nc6ccccc46)CCCC5)CC3)ccc12 | 130 | 628 | 67.5 | – |
| O=C(CN1CCN(CCCCCOc2ccc3ccc(=O)oc3c2)CC1)Nc1c2c(nc3ccccc13)CCCC2 | 310 | 215 | 52.7 | – |
| Cc1cc(=O)oc2cc(OCCCCCN3CCN(CC(=O)Nc4c5c(nc6ccccc46)CCCC5)CC3)ccc12 | 333 | 164 | 59.8 | – |
| COc1cc(=O)oc2cc(O)ccc12 | 208000 | > 500000 | 22.4 | – |
| O=C(CN1CCNCC1)Nc1c2c(nc3ccccc13)CCCC2 | 145000 | 22000 | 30.3 | – |
| O=C(CN1CCN(CCCCCCOc2ccc3ccc(=O)oc3c2)CC1)Nc1c2c(nc3ccccc13)CCCC2 | 646 | 210 | 57.1 | – |
| O=C(CN1CCN(CCCCOc2ccc3c(-c4ccccc4)cc(=O)oc3c2)CC1)Nc1c2c(nc3ccccc13)CCCC2 | 1110 | 1820 | 28.6 | – |
| Cc1cc(=O)oc2cc(OCCCCCCN3CCN(CC(=O)Nc4c5c(nc6ccccc46)CCCC5)CC3)ccc12 | 398 | 99 | 57.6 | – |
| O=C(CN1CCN(CCCOc2ccc3ccc(=O)oc3c2)CC1)Nc1c2c(nc3ccccc13)CCCC2 | 133 | 440 | 55.1 | – |
| O=C(CN1CCN(CCCOc2ccc3c(-c4ccccc4)cc(=O)oc3c2)CC1)Nc1c2c(nc3ccccc13)CCCC2 | 887 | 3160 | 28.2 | – |
| COc1cc(=O)oc2cc(OCCCN3CCN(CC(=O)Nc4c5c(nc6ccccc46)CCCC5)CC3)ccc12 | 166 | 1830 | 34.9 | – |
| O=c1ccc2ccc(O)cc2o1 | – | – | 30.5 | – |
| COc1cc(=O)oc2cc(OCCCCCCN3CCN(CC(=O)Nc4c5c(nc6ccccc46)CCCC5)CC3)ccc12 | 993 | 1780 | 31.9 | – |
| O=C(CN1CCN(CCCCOc2ccc3ccc(=O)oc3c2)CC1)Nc1c2c(nc3ccccc13)CCCC2 | 169 | 309 | 57 | – |
| Cc1cc(=O)oc2cc(O)ccc12 [HYMECROMONE] | 167000 | > 500000 | 21.5 | – |
| O=C(CN1CCN(CCOc2ccc3c(-c4ccccc4)cc(=O)oc3c2)CC1)Nc1c2c(nc3ccccc13)CCCC2 | 373 | 1510 | 27.2 | – |
| Cc1cc(=O)oc2cc(OCCCCN3CCN(CC(=O)Nc4c5c(nc6ccccc46)CCCC5)CC3)ccc12 | 187 | 147 | 52.7 | – |
| COc1cc(=O)oc2cc(OCCCCN3CCN(CC(=O)Nc4c5c(nc6ccccc46)CCCC5)CC3)ccc12 | 237 | 3630 | 22.1 | – |
| Cc1cc(=O)oc2cc(OCCN3CCN(CC(=O)Nc4c5c(nc6ccccc46)CCCC5)CC3)ccc12 | 92 | 234 | – | Activity [4]: Active; viability at 24 h, 5 µM [5]: 94.7%; Activity [6]: 93.6%; Activity [7]: 104.3%; Activity [8]: 91.5%; Activity [9]: 96.6%; Ki [10]: 81 nM; Activity [11]: Active |
| O=C(CN1CCN(CCCCCOc2ccc3c(-c4ccccc4)cc(=O)oc3c2)CC1)Nc1c2c(nc3ccccc13)CCCC2 | 1580 | 1270 | 29.5 | – |

— ChEMBL document CHEMBL2390867, “Design, synthesis and evaluation of novel tacrine-coumarin hybrids as multifunctional cholinesterase inhibitors against Alzheimer's disease” (Eur J Med Chem, 2013)
